Data taken from patent US9890111B2, “Crystal structure of bifunctional transglycosylase PBP1b from E. coli and inhibitors thereof” (Academia Sinica, priority 2008, dated 2018).
≈ marks a conversion by molar mass, not a printed value.

Experiments:
[1] = system: Mycobacterium smegmatis (ATCC11565, MS); assay: Minimal inhibitory concentration (MIC), MS; assay type: cell-based
Procedure: (§1) The minimal inhibitory concentration (MIC) of tested compounds was determined following the NCCLS standard. The experiments were conducted in 96-well microtiter plates using two-fold dilutions in Muller-Hilton broth with (Streptococcus pneumonia) or without blood (Bacillus subtilis, Enterococcus faecalis, Staphylococcus aureus, Escherichia coli, MRSA, Actinetobacter baumannii, Pseudomonas aeruginosa, Stenotrophomonas maltophilia, and Mycobacterium smegmatis). Exponentially growing cells at 5×10^5 cells/ml were incubated with test compounds at various concentrations. After an 18 h to 24 h incubation at 37° C., MIC was determined as the minimal concentration of the compound that prevents bacterial growth.

[2] = system: methicillin-resistant Staphylococcus aureus (ATCC33592, MRSA); assay: Minimal inhibitory concentration (MIC), MRSA; assay type: cell-based; conditions: methicillin-resistant Staphylococcus aureus ATCC33592
Procedure: as §1

[3] = system: Staphylococcus aureus (ATCC29213, SA); assay: Minimal inhibitory concentration (MIC), SA; assay type: cell-based; conditions: for MIC SA: Staphylococcus aureus ATCC29213; for MIC: Staphylococcus aureus, ATCC29213, Staphylococcus aureus ATCC29213, read-out: MIC SA
Procedure: as §1

[4] = biological target: T1, penicillin-binding protein 1b from E. coli (transglycosylase) (Escherichia coli, UniProt P02919); assay: Lipid II polymerization / transglycosylase (TG) activity assay; assay type: biochemical; conditions: for TG Activity at various concentration of cmpd: 50 μM: 50 μM compound; for TG Activity at various concentration of cmpd: 50 μM / TG Activity at various concentration of cmpd: 100 μM: TG activity remaining (0% = full inhibition); for TG Activity at various concentration of cmpd: 100 μM: 100 μM compound; for remaining activity at 50 µM: read-out: TG Activity at various concentration of cmpd: 50 μM; for remaining activity at 100 µM: read-out: TG Activity at various concentration of cmpd: 100 μM
T1 construct: PBP1b[58-804] was amplified from E. coli genomic DNA and cloned into the expression vector pET15b; His6 (N, cleaved yes); made in house; host or cells: E. coli BL21(DE3)
T1 sequence (P02919 58-804): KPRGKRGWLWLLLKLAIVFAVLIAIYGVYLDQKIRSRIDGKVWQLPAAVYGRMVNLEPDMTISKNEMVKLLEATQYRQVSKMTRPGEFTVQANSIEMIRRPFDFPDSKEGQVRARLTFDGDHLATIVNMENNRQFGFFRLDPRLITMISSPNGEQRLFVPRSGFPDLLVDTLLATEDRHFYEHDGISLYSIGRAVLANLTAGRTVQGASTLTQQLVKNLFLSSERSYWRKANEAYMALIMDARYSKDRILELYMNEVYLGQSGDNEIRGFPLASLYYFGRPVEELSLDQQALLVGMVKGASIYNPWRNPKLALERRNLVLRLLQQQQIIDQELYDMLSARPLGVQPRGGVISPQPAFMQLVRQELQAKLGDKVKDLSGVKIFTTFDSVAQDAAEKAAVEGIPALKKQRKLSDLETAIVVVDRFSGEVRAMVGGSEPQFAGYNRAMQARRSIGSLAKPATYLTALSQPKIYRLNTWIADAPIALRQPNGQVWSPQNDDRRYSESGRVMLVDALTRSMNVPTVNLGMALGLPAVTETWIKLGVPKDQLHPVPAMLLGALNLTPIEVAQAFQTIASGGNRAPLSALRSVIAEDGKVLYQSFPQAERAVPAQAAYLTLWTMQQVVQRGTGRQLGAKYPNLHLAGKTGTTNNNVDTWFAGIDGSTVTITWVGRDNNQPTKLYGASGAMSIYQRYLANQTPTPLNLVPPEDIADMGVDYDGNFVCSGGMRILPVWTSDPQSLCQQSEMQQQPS
Procedure: Lipid II polymerization assays were carried out by incubating 100 μM fluorophore-labeled lipid II and penicillin-binding protein 1b from E. coli in tubes containing 10 ng/μL N-acetyl muramidase in 50 mM Tris.HCl (pH 8.0), 10 mM MgCl2, 0.1% Triton X-100, 10% DMSO, and 15% MeOH for 30 minutes (Van Nieuwenhze et al. J Am Chem Soc 2002, 124, 3656.). The fluorophore can be dansyl chloride, NBD, BODIPY, fluorescein. Reaction supernatants were then injected onto an anion-exchange HPLC column (SAX1, Supelco Co.) and eluted with a linear gradient of ammonium acetate (20 mM to 0.5 M) in methanol. The eluant was monitored for fluorescence with λex=466 nm and λem=535 nm.
Purified protein was concentrated in 20 mM Tris-HCl (pH 8.0), 300 mM NaCl, and 1 mM DDM. Instead of using Dansyl lipid II, 6-(N-(7-nitrobenz-2-oxa-1,3-diazol-4-yl)amino) hexanoyl (NBD)-labeled Lipid II was prepared as described (Taubes G (2008) Science 321:356-361; Payne D J (2008) Science 321:1644-1645) and used as a substrate to measure TG enzymatic activity, with approach similar to what has been described previously (Holtje J V (1998) Microbiol Mol Biol Rev 62:181-203). Assays were carried out by using the following condition: NBD-Lipid II, 20 nM protein, 50 mM Tris HCl (pH 8.0), 10 mMCaCl2, 0.085% decyl PEG (Anatrace), and 15% MeOH at 37° C. for 0, 1, 3, 5, 7, 9, 20, and 30 min. The concentration of NBD-Lipid II was varied from 1 to 100 μM to determine the rate of the TG activity. After the reaction, 200 μM moenomycin was added to stop the reaction, and 13 μM muramidase (Sigma-Aldrich) was added to digest the TG products to result in NBD-Lipid II without lipid tails. The fluorescent signal decrease of substrate and increase of NBD-Lipid II without lipid tails were detected by anion-exchange column SAX1 (Supelco) on HPLC (Hitachi). The elution procedures was a linear gradient of ammonium acetate (20 mM to 1 M) in MeOH monitored at λexcitation=466 nm and λemission=535 nm. The kinetic parameter was estimated by following the Michaelis-Menten equation. To investigate the importance of transmembrane (TM) helix, PBP1b and PBP1bΔTM (residues Met-1 to Leu-87 were removed) were extracted with the buffer containing 20 mM Tris-HCl (pH 8.0), 300 mM NaCl, and 13 mM FOS-CHOLINE-14 (Anatrace). The protein was purified by nickel chelation chromatography in the presence of 1 mM DDM. The activity assay was carried out by using the following condition: 12 μM NBD-Lipid II, 20 nM protein, 50 mM Tris-HCl (pH 8.0), 10 mM CaCl2, 0.085% decyl PEG, and 15% MeOH at 37° C. for time 0, 1, 3, 5, 7, 9, 20, and 30 min. The initial velocity was used to compare the activity of full-length PBP1b and PBP1bΔTM.

Compound	MIC SA [3]	TG Activity at various concentration of cmpd: 50 μM [4]	TG Activity at various concentration of cmpd: 100 μM [4]	also measured
O=C(Nc1cc(Cl)c(Cl)c(Cl)c1)c1cc(Cl)cc(Cl)c1O [Compound 142]	0.5 µg/mL (≈ 1.3 µM)	–	–	MIC MS ([1]; Mycobacterium smegmatis ATCC11565): 0.125 µg/mL (≈ 0.324 µM); MIC MRSA [2]: 0.5 µg/mL (≈ 1.3 µM)
O=C(Nc1cc(Cl)ccc1Oc1ccccc1)c1ccccc1O [Compound A3N1]	1 µg/mL (≈ 2.94 µM)	100%	100%	–
Cc1ccc(NC(=O)c2ccccc2O)cc1Cl [Compound A3N3]	–	–	–	remaining activity at 50 µM [4]: 100%; remaining activity at 100 µM [4]: 100%; MIC [3]: 4 µg/mL (≈ 15.3 µM)
O=C(Nc1cc(Cl)ccc1Oc1ccccc1)c1ccc(O)c(O)c1O [Compound A5N1]	8 µg/mL (≈ 21.5 µM)	100%	0%	–
O=C(Nc1ccc(Cl)cc1)c1ccccc1O [Compound A3N4]	–	–	–	remaining activity at 50 µM [4]: 100%; remaining activity at 100 µM [4]: 100%; MIC [3]: 8 µg/mL (≈ 32.3 µM)
COc1ccc(NC(=O)c2ccccc2O)cc1 [Compound A3N6]	–	–	–	remaining activity at 50 µM [4]: 100%; remaining activity at 100 µM [4]: 100%; MIC [3]: > 32 µg/mL
O=C(Nc1ccc([N+](=O)[O-])cc1)c1ccccc1O [Compound A3N5]	–	–	–	remaining activity at 50 µM [4]: 100%; remaining activity at 100 µM [4]: 100%; MIC [3]: 4 µg/mL (≈ 15.5 µM)
O=C(Nc1ccccc1Oc1ccccc1)c1ccc(O)cc1 [Compound A6N2]	>32 µg/mL	100%	100%	–
O=C(Nc1ccccc1Oc1ccccc1)c1cc(Br)cc(Br)c1 [Compound A2N2]	>32 µg/mL	100%	100%	–
O=C(Nc1cc(Cl)ccc1Oc1ccccc1)c1cc(Br)cc(Br)c1 [Compound A2N1]	>32 µg/mL	100%	100%	–
O=C(Nc1ccccc1Oc1ccccc1)c1ccccc1O [Compound A3N2]	8 µg/mL (≈ 26.2 µM)	100%	100%	–
Cc1ccc(NC(=O)c2ccc(O)cc2)cc1Cl [Compound A6N3]	32 µg/mL (≈ 122 µM)	100%	100%	–
O=C(Nc1cc(Cl)ccc1Cl)c1cc(Cl)cc(Cl)c1O [Compound 141]	–	–	–	MIC ([1]; Mycolicibacterium smegmatis, ATCC11565, Mycobacterium smegmatis ATCC11565, read-out: MIC MS): 2 µg/mL (≈ 5.7 µM); MIC ([2]; Staphylococcus aureus, read-out: MIC MRSA): 0.5 µg/mL (≈ 1.42 µM); MIC [3]: 1 µg/mL (≈ 2.85 µM)
Cc1ccc(NC(=O)c2ccccc2)cc1Cl [Compound A4N3]	>32 µg/mL	100%	100%	–
O=C(Nc1cc(Cl)ccc1Oc1ccccc1)c1ccc(O)cc1 [Compound A6N1]	16 µg/mL (≈ 47.1 µM)	100%	100%	–
O=C(Nc1ccccc1Oc1ccccc1)c1ccc(O)c(O)c1O [Compound A5N2]	8 µg/mL (≈ 23.7 µM)	100%	0%	–
O=C(Nc1cc(Cl)ccc1Oc1ccccc1)c1ccccc1 [Compound A4N1]	>32 µg/mL	100%	100%	–
Cc1ccc(NC(=O)c2ccc(O)c(O)c2O)cc1Cl [Compound A5N3]	–	–	–	remaining activity at 50 µM [4]: 100%; remaining activity at 100 µM [4]: 0%; MIC [3]: 4 µg/mL (≈ 13.6 µM)
O=C(Nc1ccccc1Oc1ccccc1)c1cc(Br)cc(Br)c1O [Compound A1N2]	>32 µg/mL	100%	100%	–
Cc1ccc(NC(=O)c2cc(Br)cc(Br)c2)cc1Cl [Compound A2N3]	>32 µg/mL	100%	100%	–
O=C(Nc1ccc(Cl)cc1)c1cc(Br)cc(Br)c1O [Compound A1N4]	1 µg/mL (≈ 2.47 µM)	100%	–	–
